Results published in PubChem BioAssay (NCI).
Where “and” joins values, the source holds several entries; their conditions need not be identical. Equal values may be shown once.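 Values below derive from 48-hour exposures of cells grown in 96-well plates, with endpoints linearly interpolated between the two concentrations bracketing the appropriate inhibition level. GI50: concentration for 50% inhibition of growth. TGI: concentration producing complete growth inhibition.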

Assays:
Test in all cases: growth of human tumour cells (NCI), 48 h
HOP-92 NSCLC = test system: HOP-92 NSCLC
SF-539 CNS = test system: SF-539 CNS
DU-145 prostate = test system: DU-145 prostate
OVCAR-5 ovarian = test system: OVCAR-5 ovarian
HL-60(TB) leukemia = test system: HL-60(TB) leukemia
TK-10 renal = test system: TK-10 renal

Compound	TGI (HOP-92 NSCLC)	TGI (SF-539 CNS)	TGI (DU-145 prostate)	TGI (OVCAR-5 ovarian)	TGI (HL-60(TB) leukemia)	TGI (TK-10 renal)	GI50 (HOP-92 NSCLC)	GI50 (SF-539 CNS)	GI50 (DU-145 prostate)	GI50 (OVCAR-5 ovarian)	GI50 (HL-60(TB) leukemia)	GI50 (TK-10 renal)
C[C@H]1/C(=C/C(=O)OCCN(C)C)CC[C@H]2[C@H]1C(=O)C[C@H]1C(C)(C)[C@@H](O)CC[C@]21C	> 100 µM	> 100 µM	> 100 µM	> 100 µM	> 100 µM	> 100 µM						
C=C1CC2(CC(c3ccccc3Cl)OC(c3ccccc3Cl)C2)OC1=O (stereo unspecified)	4.65 µM	4.27 µM	14.4 µM	16.5 µM	12.1 µM	9.03 µM						
O=C1/C=C/[C@@H](O)[C@@H]2C[C@@H](O)C[C@H]2/C=C/CCC[C@H](CCc2cccc3ccccc23)O1	26.4 µM	16.3 µM	14.7 µM	13.9 µM	0.366 µM	0.328 µM	12.3 µM	0.121 µM	0.377 µM	0.103 µM	0.0923 µM	0.0861 µM
Cc1nc2c(c(N3CCCc4ccccc43)n1)CCC2	> 100 µM		> 100 µM	> 100 µM		> 100 µM	2.42 µM		< 0.01 µM	1.7 µM	< 0.01 µM	1.62 µM
CO[C@H]1C=CO[C@@]2(C)Oc3c(C)c(O)c4c(O)c(c(CN5CCN(C)CC5)c(O)c4c3C2=O)NC(=O)/C(C)=C\C=C[C@H](C)[C@H](O)C(C)[C@@H](O)C(C)[C@H](OC(C)=O)[C@@H]1C (stereo partly specified)	> 100 µM	> 68.5 µM	> 100 µM	> 100 µM	83.7 µM	> 100 µM						
Cn1c(=O)c(Oc2ccc(F)cc2F)cc2cnc(NC(C)(C)CO)nc21	> 25 µM	> 25 µM	> 25 µM	> 25 µM	> 25 µM	> 25 µM	7.44 µM	> 25 µM	> 25 µM	> 25 µM	> 25 µM	> 25 µM
CCCCOC(=O)c1ccc(N)cc1	> 100 µM	> 100 µM	> 100 µM	> 100 µM	> 100 µM	> 100 µM	95.1 µM	30 µM	> 100 µM	34.8 µM	52.7 µM	92 µM
O=C(Nc1ccc(Cc2ccccc2)cc1)Nc1nn(C(=O)Nc2ccc(Cc3ccccc3)cc2)c2ccccc12	> 100 µM	> 100 µM	> 100 µM	> 100 µM	> 100 µM	> 100 µM	18 µM	> 100 µM	80 µM	> 100 µM	> 100 µM	> 100 µM
CN(C)CCCN(CCC1CCCCC1)CCC1CCCCC1	9.7 µM	3.16 µM	17.7 µM	7.97 µM	9.88 µM	8.92 µM	1 µM	1.68 µM	5.56 µM	2.7 µM	2.09 µM	2.5 µM
CSc1c(C2=C(c3cn(C)c4ccccc34)C(=O)NC2=O)c2ccccc2n1C	> 25 µM		> 25 µM	> 25 µM	3.55 µM	> 25 µM	0.599 µM		1.13 µM	23.4 µM	0.703 µM	0.606 µM
O=C(O)[C@H](Cc1c[nH]c2ccccc12)N1C(=O)c2ccccc2C1=O	> 100 µM	> 100 µM	> 100 µM	> 100 µM	> 100 µM	> 100 µM	72.3 µM				> 100 µM	
O=C(/C=C/c1ccc(Cl)cc1)c1ccccc(=O)c1O	17 µM	17.5 µM	19.1 µM	19.8 µM	2.04 µM	19.1 µM						
C=C(CN1CCN(c2ccc(C(F)(F)F)cc2)CC1)c1ccc(C(=O)Nc2ccccc2N)cc1	23.7 µM	> 100 µM	> 100 µM	> 100 µM	0.279 µM	> 82.4 µM	3.95 µM	8.15 µM	21 µM	> 100 µM	0.0732 µM	21 µM
CCCc1n(Cc2ccc3ccccc3c2)cc[n+]1Cc1ccc2ccccc2c1	2.66 µM	2.85 µM	7.25 µM	3.32 µM	1.17 µM	2.7 µM	0.863 µM	1.1 µM	1.49 µM	1.43 µM	0.321 µM	1.28 µM
COC(=O)C1=C(O)[C@H](C(=O)OC)C2(O)C(C(=O)OC)[C@H](c3ccc(OC(=O)C(C)c4ccccc4)cc3)C[C@@H]1[C@@H]2C(=O)OC (stereo partly specified)	> 50 µM	34.1 µM	> 50 µM	> 50 µM	> 50 µM	> 50 µM	> 50 µM	11.8 µM	20.6 µM	> 50 µM	43.3 µM	48.6 µM
Cc1ccc(Nc2nccc(N(C)c3ccc4c(C)n(C)nc4c3)n2)cc1S(N)(=O)=O			> 100 µM	> 100 µM	30.6 µM and > 10 µM and 34 µM	> 10 µM and 77.3 µM		0.589 µM and 1.5 µM	5.21 µM and 5.4 µM and 11.5 µM	1.43 µM and 6.49 µM	6.45 µM and 1.94 µM and 7.14 µM	2.05 µM and 9.87 µM
NCCc1ccc(S(=O)(=O)F)cc1	96.2 µM	70 µM	> 100 µM	> 100 µM		> 100 µM	32.9 µM	14.8 µM	37 µM	43.4 µM		59.3 µM
CC(=O)OC1CCC2(C)C(CCC3C2CC(=O)C2(C)C3CC(N3CC3)C2C(C)=O)C1 (stereo unspecified)	43.1 µM	37.3 µM	> 100 µM	> 100 µM		45.3 µM						
CC/C=C\C[C@H](F)C/C=C1/C(=O)C=C[C@@H]1C/C=C\CCCC(=O)OC		11.2 µM	9.81 µM	12.4 µM	6.29 µM	16.2 µM		4.26 µM	3.17 µM	3.35 µM	1.52 µM	7.09 µM
COc1cc2c(c(OC)c1OC)-c1ccc(O)cc1[C@@H](NC(C)=O)CC2	> 100 µM		0.168 µM	> 100 µM	0.0645 µM	> 100 µM		0.0261 µM	0.0365 µM	0.215 µM	0.0227 µM	0.0406 µM
